The values that follow come from patent US11873298B2, “Compounds and uses thereof” (JANSSEN PHARMACEUTICA NV, priority 2017, dated 2024).

SMILES strings stand for the structures. pEC50, pIC50: −log10 of the molar value.

Assay [1] deals with U2OS cells transiently overexpressing alpha-synuclein. Description: U2OS transient overexpression induced cytotoxicity assay (ATP content, CellTiter-Glow). The class given is cell-based, human. To be noted: 72 hours post transfection. As to the method:
U2OS (Sigma-Aldrich), a human bone osteosarcoma epithelial cell line, is regularly maintained in McCoy's 5A medium (ATCC) supplemented with 10% FBS (ThermoFisher) between passage 11-21 and sub -cultured twice a week for the assay.
On the day of experiment, cells are about 80% confluence and trypsinized using 0.25% trypsin-EDTA (ThermoFisher Inc.) for 5 minutes at 37 c. Based on a ratio of 2 ug DNA/2e5 cells, required cells are spun down at 800 rpm for 5 minutes at room temperature. Cells are then re-suspended in SE solution (Lonza Inc.) at a density of 2e4 cells/μl. Nucleofection is performed using 4D-Nucleofector™ System (Lonza Inc.) under program code CM130. Cells are allowed to recover in the cuvette at room temperature for 10-15 minutes before further handling. Pre-warmed medium is added and cells suspension is thoroughly but gently mixed before plating. Cells are seeded at 2e4 cells/100 µl/well into 96 well PLD-coated white plate (Corning) using customized Viaflow program (Integra Biosciences). Serial dilution of drugs is carried out in DMSO. Drug solution is prepared at 6× fold, 20 ul of which is added to cells 4 hours after transfection. The final DMSO concentration is 0.3%. Microclimate lid (Labcyte) is strongly recommended to reduce evaporation and variation. Seventy-two hours post transfection, cells are lysed using CellTiter-Glow (Promega) and ATP content is determined using a luminescence plate reader (Perkin Elmer).
% Maximum fold rescue at each concentration is calculated as follows: […]
FK506 (tacrolimus), a macrolide calcineurin inhibitor, is used as reference compound in the assay.
% Rescue (normalized by max fold rescue of FK506)=(% Fold^αSyn drug-100)*100/(% Max fold^αSyn FK506-100).
A general note: ATP-based viability assays read luminescence as a measure of living cells.

For assay [2], the system named is yeast strains expressing the human α-synuclein. To be noted: reference compound, earlier work; cited from earlier work.
In assay [3] the target is T1, yeast OLE1 (Saccharomyces cerevisiae, UniProt P21147).
T1 construct: expressed in transfected cells; host or cells: S. cerevisiae ole1Δ strain (W303 pdr1Δ pdr3Δ background), plasmid pRS316 with TDH3 promoter and CYC1 terminator
T1 sequence (P21147 1-510): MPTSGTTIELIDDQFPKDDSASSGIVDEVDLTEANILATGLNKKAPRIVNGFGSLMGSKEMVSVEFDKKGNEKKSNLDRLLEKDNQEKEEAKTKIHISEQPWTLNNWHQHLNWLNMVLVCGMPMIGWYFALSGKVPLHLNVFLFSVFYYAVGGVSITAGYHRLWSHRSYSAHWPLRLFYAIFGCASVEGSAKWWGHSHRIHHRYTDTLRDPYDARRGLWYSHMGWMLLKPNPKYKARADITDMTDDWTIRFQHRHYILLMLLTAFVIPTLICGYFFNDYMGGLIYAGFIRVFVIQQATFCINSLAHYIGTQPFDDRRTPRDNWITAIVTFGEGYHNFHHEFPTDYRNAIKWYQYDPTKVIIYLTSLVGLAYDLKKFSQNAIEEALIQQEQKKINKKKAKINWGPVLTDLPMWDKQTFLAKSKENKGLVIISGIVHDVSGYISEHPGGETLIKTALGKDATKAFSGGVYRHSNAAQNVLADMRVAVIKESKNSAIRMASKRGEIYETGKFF
Put plainly: Growth of yeast surviving solely on yeast OLE1. The class given is cell-based. As to the method: (§1) FIG. 6 is a series of graphs showing that commercial Scd inhibitors target human SCD1/SCD5 in yeast. Yeast surviving solely on yeast OLE1, or human SCD1 or SCD5, were treated with four commercial Scd inhibitors at indicated concentrations. Data are expressed as a percent of the DMSO-treated condition.
(§2) FIG. 7 is a series of graphs showing that 1,2,4-oxadiazoles target human SCD1 and SCD5. Three “SCD” strains expressing yeast OLE1 or human SCD1 or SCD5 were treated with five representative 1,2,4-oxadiazoles and a cycloheximide toxicity control at concentrations indicated on the log10 x-axis. The y-axis indicates the percent of the DMSO-treated condition. […] Approximately one half of all (250) 1,2,4-oxadiazoles tested inhibited SCD1 or SCD5 in a manner that was reversed by oleic/palmitoleic acid treatment.

In assay [4] the target is T2, SCD1 (Homo sapiens, UniProt O00767).
T2 construct: host or cells: S. cerevisiae ole1Δ strain (W303 pdr1Δ pdr3Δ background), plasmid pRS316 with TDH3 promoter and CYC1 terminator
T2 sequence (O00767 1-359): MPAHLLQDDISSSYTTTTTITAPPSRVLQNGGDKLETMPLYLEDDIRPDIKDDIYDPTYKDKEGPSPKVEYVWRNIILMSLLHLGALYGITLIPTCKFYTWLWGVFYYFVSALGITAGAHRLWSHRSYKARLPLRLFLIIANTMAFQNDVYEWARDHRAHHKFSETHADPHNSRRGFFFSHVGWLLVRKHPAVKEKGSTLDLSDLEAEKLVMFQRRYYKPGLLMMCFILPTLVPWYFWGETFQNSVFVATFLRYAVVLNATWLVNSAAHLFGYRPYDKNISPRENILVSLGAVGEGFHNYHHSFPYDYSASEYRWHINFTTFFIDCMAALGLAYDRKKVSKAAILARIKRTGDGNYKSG
Put plainly: Growth of yeast surviving solely on human SCD1. Format: cell-based. As to the method:
as §1, §2

In assay [5] the target is T3, SCD5 (Homo sapiens, UniProt Q86SK9).
T3 construct: host or cells: S. cerevisiae ole1Δ strain (W303 pdr1Δ pdr3Δ background), plasmid pRS316 with TDH3 promoter and CYC1 terminator
T3 sequence (Q86SK9 1-330): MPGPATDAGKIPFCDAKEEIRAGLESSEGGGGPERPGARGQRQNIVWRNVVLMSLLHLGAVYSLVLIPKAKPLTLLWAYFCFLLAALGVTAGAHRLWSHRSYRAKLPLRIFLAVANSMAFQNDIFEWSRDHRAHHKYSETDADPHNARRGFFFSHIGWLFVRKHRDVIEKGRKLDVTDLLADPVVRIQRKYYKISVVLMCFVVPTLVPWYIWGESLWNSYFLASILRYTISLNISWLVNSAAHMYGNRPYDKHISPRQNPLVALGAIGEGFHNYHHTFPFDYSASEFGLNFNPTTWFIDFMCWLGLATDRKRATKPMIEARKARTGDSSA
Description: Growth of yeast surviving solely on human SCD5. Format: cell-based. As to the method: as §1, §2

Assay [6] addresses T3, SCD5. Description: Growth inhibition of humanized yeast strain expressing SCD5 as sole desaturase. Format: cell-based. To be noted: humanized yeast strain expressing SCD5. In outline:
(§3)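 Plasmid-complemented ole1Δ yeast, drug-pump deleted (pdr1Δ pdr3Δ), depend solely on the introduced Ole1, SCD1 or SCD5 desaturase. Compounds are added from DMSO to cells in uracil-free galactose medium, 2× density 0.02, and OD600 is read after 24 h or 40 h respectively.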

Assay [7] relates to yeast strains expressing the human ApoE4. Put plainly: Yeast ApoE4 toxicity rescue assay (OD600 growth). The conditions noted are these: 24 h; for pEC50: read-out: ApoE4 EC50; for Emax: read-out: ApoE4 Emax.
The target of assay [8] is T4, Ole1 (Saccharomyces cerevisiae, UniProt P21147).
T4 construct: expressed in transfected cells; host or cells: S. cerevisiae ole1Δ strain (W303 pdr1Δ pdr3Δ background), plasmid pRS316 with TDH3 promoter and CYC1 terminator
T4 sequence (P21147 1-510): T1 sequence (P21147 1-510)
Put plainly: Growth inhibition of yeast strain expressing Ole1 as sole desaturase. Format: cell-based. The conditions noted are these: yeast strain expressing Ole1 as sole desaturase. In outline: as §3

Assay [9] has as its target T2, SCD1. Description: Growth inhibition of humanized yeast strain expressing SCD1 as sole desaturase. The class given is cell-based. The conditions noted are these: humanized yeast strain expressing SCD1. In outline:
as §3

For assay [10], the system named is yeast strains expressing the human α-synuclein. Description: Yeast α-synuclein toxicity rescue assay (OD600 growth). The conditions noted are these: 40 h; for pEC50: read-out: α-Syn EC50; for Emax: read-out: α-Syn Emax.

As for `Cc1nn(C)c2cc(-c3noc(C4CCN(C(=O)CNC(=O)c5ccccc5)CC4)n3)ccc12` [Example 40, N-(2-(4-(3-(1,3-dimethyl-1H-indazol-6-yl)-1,2,4-oxadiazol-5-yl)piperidin-1-yl)-2-oxoethyl)benzamide], the “% Rescue (normalized by FK506 max rescue)” value in assay [1] (0.01 μM) came to 107%; in [1] (0.1 μM), 137%; in [1] (0.3 μM) it was 105%; in assay [1] (1 μM), 77%.

Regarding `CCOc1ccc(-c2noc(C3CCN(C(=O)CNC(=O)c4ccccc4)CC3)n2)cc1OC` [Example 155, N-(2-(4-(3-(4-ethoxy-3-methoxyphenyl)-1,2,4-oxadiazol-5-yl)piperidin-1-yl)-2-oxoethyl)benzamide], the “% Rescue (normalized by FK506 max rescue)” value is listed as −23% in assay [1] (0.01 μM), 83% in [1] (0.1 μM), 44% in assay [1] (0.3 μM) and 10% in assay [1] (1 μM).

Take `C=CC[C@@H]1/C=C(\C)C[C@H](C)C[C@H](OC)[C@H]2O[C@@](O)(C(=O)C(=O)N3CCCC[C@H]3C(=O)O[C@H](/C(C)=C/[C@@H]3CC[C@@H](O)[C@H](OC)C3)[C@H](C)[C@@H](O)CC1=O)[C@H](C)C[C@@H]2OC` [FK506, tacrolimus]: in assay [2], the “rescue of αSyn toxicity in yeast models” value is listed as “rescue αSyn toxicity”.

Take `C[C@@H]1C[C@@H]([C@H](O)CC2CC(=O)NC(=O)C2)C(=O)[C@@H](C)C1` [Cyclohexamide, cycloheximide]: the “growth of the strain expressing yeast OLE1 (percent of the DMSO-treated condition)” value in assay [3] is recorded as “inhibited growth of all three strains with the same potency”. Also, the “growth of SCD1-expressing yeast (percent of the DMSO-treated condition)” value in assay [4] is “inhibited growth of all three strains with the same potency”. In addition, the “growth of SCD5-expressing yeast (percent of the DMSO-treated condition)” value in assay [5] was “inhibited growth of all three strains with the same potency”.

On to `COc1ccc(-c2noc(C3CCN(C(=O)CNC(=O)c4cccc(C)c4)CC3)n2)cc1OC` [compound 14], for which the pIC50 in assay [6] is 4.56; in assay [8], less than 4.35; in assay [9], less than 4.35. Moreover, the pEC50 in assay [7] is 5.74; in assay [10], 5.93. Moreover, the Emax in assay [7] is 771%; in assay [10], 463%.

Take `Cc1ccc(-c2nc(C3CCN(C(=O)[C@H]4CC(=O)N(c5ccc(C)c(C)c5)C4)CC3)no2)cc1` (single isomer, unassigned) [compound 71]: the pIC50 in assay [6], in assay [8] and in assay [9] was less than 4.35 in each case. For the same compound, the values for the negative-log EC50 (pEC50) in assay [7] and in [10] were 5.05 and 5.09, respectively. Besides, the Emax worked out at 235% in assay [7] and 151% in assay [10].

For `COc1ccc(-c2noc(C3CCN(C(=O)CNC(=O)c4ccccc4)CC3)n2)cc1` [compound 10], the pIC50 in [6], in assay [8] and in assay [9] was less than 4.35 each time. Also, the pEC50 in assay [7] was 5.34; in assay [10], 5.31. Also, the figures for the Emax in [7] and in assay [10] were 736% and 392%, respectively.

In the case of `COc1ccc(-c2noc(N3CCC(C(=O)NCCc4ccccc4)CC3)n2)cc1OC` [Compound 49], in assay [6], the negative-log IC50 (pIC50) was less than 4.35 and the “SCD5 % Max Inhibition” value is listed as 63.18%. Also, in assay [7], the pEC50 was 5.36 and the Emax is 942%. In assay [8], the negative logarithm of the IC50 (pIC50) was less than 4.35 and the “OLE1 % Max Inhibition” value is 34.89%. Besides, in [9], the pIC50 was less than 4.35 and the “SCD1 % Max Inhibition” value turned out to be 61.29%. Moreover, in assay [10], the pEC50 was 5.83 and the Emax was found to be 636%.

Turning to `O=C(NCC(=O)N1CCC(c2nc(-c3ccc(Cl)c(Cl)c3)no2)CC1)c1ccccc1` [compound 23], the values for the pIC50 in assay [6], in [8] and in assay [9] were less than 4.35, less than 4.35 and 4.47, respectively. Moreover, the figures for the pEC50 in assay [7] and in assay [10] were 5.19 and 5.11, respectively. Further, the Emax is 466% in assay [7] and 182% in [10].

Take `CC(C)c1ccc(C(=O)N2CCC(c3nc(-c4cccc(F)c4)no3)CC2)cc1` [compound 8]: the pIC50 in [6], in assay [8] and in [9] was less than 4.35 in each case. The Emax in assay [7] amounted to 111%; in [10], 188%. In addition, in assay [10], the negative-log EC50 (pEC50) was 4.86.

For `Cc1ccc(N2CC(C(=O)N3CCC(c4nc(-c5ccccc5)no4)CC3)CC2=O)cc1C` (stereo not shown) [compound 1], the pIC50 in [6] is less than 4.35; in assay [8], 4.39; in assay [9] it was less than 4.35. Besides, the figures for the Emax in assay [7] and in assay [10] were 320% and 155%, respectively.

On to `Cc1cccc(-c2nc(C3CCN(C(=O)C4CC(=O)N(c5ccc(C)c(C)c5)C4)CC3)no2)c1` (stereo not shown) [Compound 51], for which, in assay [6], the pIC50 is less than 4.35 and the “SCD5 % Max Inhibition” value is recorded as 6.59%. Moreover, in [7], the Emax was 286%. Further, in assay [8], the negative logarithm of the IC50 (pIC50) is less than 4.35 and the “OLE1 % Max Inhibition” value is 102.56%. In addition, in [9], the pIC50 was less than 4.35 and the “SCD1 % Max Inhibition” value is listed as 76.83%. In assay [10], the pEC50 is 4.96 and the Emax was determined as 137%.

As a reminder, the pIC50 is the IC50 on a negative log10 scale, so that one unit is a factor of ten. Read a high pIC50 as a low IC50. The pEC50 is the negative decadic logarithm of the EC50, by convention in mol/L.
